Source: patent US8652718B2, “Resin composition, image-forming material, and image-forming method” (Fuji Xerox Co., Ltd., priority 2012, dated 2014)
Values after ≈ are worked out from the molar mass of the structure shown. Where two headings read alike, the source gives them in different places.

Key:
[1] = Measurement of solubility in tetrahydrofuran; type: physicochemical; settings: for Solubility in tetrahydrofuran compared to Formulae (II-1) and (II-2): comparison in words from Table 1; for solubility: tetrahydrofuran, 24 °C, organic solvent or mixture, thermodynamic from solid, 24±1° C.
Experimental: The solubility of the compound represented by Formula (I-1) in tetrahydrofuran (24±1° C.) is measured in the following manner.
After 10.00 mg of the compound (dark brown solid) represented by Formula (I-1) is mixed with 5.00 ml of tetrahydrofuran in a screw vial, the vial is irradiated with ultrasonic waves for 30 minutes while the vial is sealed with a cap, and left to stand overnight at room temperature. The obtained solution is filtered through a membrane filter having a pore size of 25 nm, and a dry weight of the dark brown solid remaining on the filter is measured. As a result, the weight of the compound represented by Formula (I-1) dissolved in 5.00 ml of tetrahydrofuran is found, whereby the solubility in tetrahydrofuran may be calculated.

[2] = Visible near-infrared absorption spectrum in a tetrahydrofuran solution; type: physicochemical
Excerpt: The dark brown solid obtained as above is identified by an infrared absorption spectrum (KBr tablet method), a ^1H-NMR spectrum, a mass spectrum, and a visible near-infrared absorption spectrum. As a result, the dark brown solid described above is confirmed to have a molecular structure represented by Formula (I-1).
Visible Near-Infrared Absorption Spectrum (FIG. 1): […]

[3] = read-out: Solubility in tetrahydrofuran
[4] = read-out: Solubility in tetrahydrofuran, Relative evaluation

Row | Compound | Solubility in tetrahydrofuran compared to Formulae (II-1) and (II-2) [1] | solubility [1, 3] [µg/mL] | solubility [1, 4] [µg/mL] | Maximum absorption wavelength (λmax) [2] [nm] | Molar absorption coefficient at the maximum absorption wavelength (εmax) [2] [M⁻¹ cm⁻¹]
1 | CC(C)(C)c1ccc(C2=CC(=CC3=C([O-])/C(=C/c4cc(-c5ccc(C(C)(C)C)cc5)[s+]c(-c5ccc(C(C)(C)C)cc5)c4)C3=O)C=C(c3ccc(C(C)(C)C)cc3)S2)cc1 [Formula I-1] | superior solubility in tetrahydrofuran | 1300 | ≥ 1000 | 908 | 269000
2 | CCCCc1ccc(C2=CC(=CC3=C([O-])/C(=C/c4cc(-c5ccc(CCCC)cc5)[s+]c(-c5ccc(CCCC)cc5)c4)C3=O)C=C(c3ccc(CCCC)cc3)S2)cc1 [Formula I-2] | superior solubility in tetrahydrofuran | 1100 | ≥ 1000 | 910 | 210000
3 | CCc1ccc(C2=CC(=CC3=C([O-])/C(=C/c4cc(-c5ccc(CC)cc5)[s+]c(-c5ccc(CC)cc5)c4)C3=O)C=C(c3ccc(CC)cc3)S2)cc1 [Formula I-3] | superior solubility in tetrahydrofuran | 600 | 100 to 1000 | 908 | 180000

Now from value to molecule:

Row | Solubility in tetrahydrofuran compared to Formulae (II-1) and (II-2) [1] | solubility [1, 3] [µg/mL] | solubility [1, 4] [µg/mL] | Maximum absorption wavelength (λmax) [2] [nm] | Molar absorption coefficient at the maximum absorption wavelength (εmax) [2] [M⁻¹ cm⁻¹] | Compound
4 | – | < 50 | < 100 | 901 | 207000 | O=C1C(C=C2C=C(c3ccccc3)SC(c3ccccc3)=C2)=C([O-])/C1=C/c1cc(-c2ccccc2)[s+]c(-c2ccccc2)c1 [II-1, reference compound]
5 | – | 300 (≈ 455 µM) | 100 to 1000 (≈ 152 to 1520 µM) | 905 | 190000 | Cc1ccc(C2=CC(=CC3=C([O-])/C(=C/c4cc(-c5ccc(C)cc5)[s+]c(-c5ccc(C)cc5)c4)C3=O)C=C(c3ccc(C)cc3)S2)cc1 [II-2, reference compound]
6 | – | 1100 (≈ 1170 µM) | ≥ 1000 | 910 | 200000 | CCCCCCc1ccc(C2=CC(=CC3=C([O-])/C(=C/c4cc(-c5ccc(CCCCCC)cc5)[s+]c(-c5ccc(CCCCCC)cc5)c4)C3=O)C=C(c3ccc(CCCCCC)cc3)S2)cc1 [II-3, reference compound]
